Measurements reported in US20220187282A1, “CARDIOMYOCYTE PROLIFERATION” (The Council of the Queensland Institute of Medical Research, priority 2019, published 2022).
Entries after “also recorded” stand apart in the source; their conditions may differ. Like-named read-outs stand apart in the source and are kept apart here.

How the values were obtained:
Assay type in all cases: biochemical
kinases [1] = biological target: kinases (Homo sapiens, UniProt P49336); conditions: CDK8/cyclin C FRET-Lantha SP; Test Conc(μM) 1
Chain of kinases (Homo sapiens, UniProt P49336) (P49336 whole entry): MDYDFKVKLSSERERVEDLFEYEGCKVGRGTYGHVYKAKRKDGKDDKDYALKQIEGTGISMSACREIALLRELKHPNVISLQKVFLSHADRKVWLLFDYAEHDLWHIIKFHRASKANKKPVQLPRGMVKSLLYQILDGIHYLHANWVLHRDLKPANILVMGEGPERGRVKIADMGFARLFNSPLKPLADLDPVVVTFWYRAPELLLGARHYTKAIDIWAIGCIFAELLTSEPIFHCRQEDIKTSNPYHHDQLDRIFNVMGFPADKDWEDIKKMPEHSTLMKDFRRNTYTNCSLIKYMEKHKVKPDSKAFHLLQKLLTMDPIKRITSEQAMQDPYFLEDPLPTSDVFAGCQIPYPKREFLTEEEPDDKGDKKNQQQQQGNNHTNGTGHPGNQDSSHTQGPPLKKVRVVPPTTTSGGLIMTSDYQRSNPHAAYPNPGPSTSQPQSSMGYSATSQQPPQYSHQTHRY

kinases [2] = biological target: kinases (Homo sapiens, UniProt O00329); conditions: PIK3CD/PIK3R1 FRET-Adapta SP; Test Conc(μM):ATP Conc(μM) 1:75
kinases [3] = biological target: kinases (Homo sapiens, UniProt Q08881); conditions: ITK FRET-Z-Lyte SP; Test Conc(μM):ATP Conc(μM) 1:5
kinases [4] = biological target: kinases (Homo sapiens, UniProt P31749); conditions: AKT1 (PKB alpha) Z-Lyte SP; Test Conc(μM):ATP Conc(μM) 1:75
Chain of kinases (Homo sapiens, UniProt P31749) (P31749 whole entry): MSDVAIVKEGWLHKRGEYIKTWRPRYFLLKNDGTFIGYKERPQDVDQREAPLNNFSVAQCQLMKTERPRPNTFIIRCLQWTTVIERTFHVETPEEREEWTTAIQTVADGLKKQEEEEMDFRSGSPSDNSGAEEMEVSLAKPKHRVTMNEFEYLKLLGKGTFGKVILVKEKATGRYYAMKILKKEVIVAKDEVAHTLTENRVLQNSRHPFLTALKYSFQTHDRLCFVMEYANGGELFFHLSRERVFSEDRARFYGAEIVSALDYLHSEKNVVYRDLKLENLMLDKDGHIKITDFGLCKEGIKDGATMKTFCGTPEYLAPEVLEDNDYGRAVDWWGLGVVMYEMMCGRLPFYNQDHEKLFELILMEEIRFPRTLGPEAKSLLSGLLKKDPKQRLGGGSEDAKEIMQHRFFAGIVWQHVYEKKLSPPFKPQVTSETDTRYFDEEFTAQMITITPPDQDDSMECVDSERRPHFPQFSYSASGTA

kinases [5] = biological target: kinases (Homo sapiens, UniProt P54756); conditions: EPHA5 FRET-Z-Lyte SP; Test Conc(μM):ATP Conc(μM) 1:150
kinases [6] = biological target: kinases (Homo sapiens, UniProt Q96L34); conditions: MARK4 FRET-Z-Lyte SP; Test Conc(μM):ATP Conc(μM) 1:10
kinases [7] = biological target: kinases (Homo sapiens, UniProt P36888); conditions: FLT3 Hu Phos FRET-Z-Lyte SP; Test Conc(μM):ATP Conc(μM) 1:500
Chain of kinases (Homo sapiens, UniProt P36888) (P36888 27-993): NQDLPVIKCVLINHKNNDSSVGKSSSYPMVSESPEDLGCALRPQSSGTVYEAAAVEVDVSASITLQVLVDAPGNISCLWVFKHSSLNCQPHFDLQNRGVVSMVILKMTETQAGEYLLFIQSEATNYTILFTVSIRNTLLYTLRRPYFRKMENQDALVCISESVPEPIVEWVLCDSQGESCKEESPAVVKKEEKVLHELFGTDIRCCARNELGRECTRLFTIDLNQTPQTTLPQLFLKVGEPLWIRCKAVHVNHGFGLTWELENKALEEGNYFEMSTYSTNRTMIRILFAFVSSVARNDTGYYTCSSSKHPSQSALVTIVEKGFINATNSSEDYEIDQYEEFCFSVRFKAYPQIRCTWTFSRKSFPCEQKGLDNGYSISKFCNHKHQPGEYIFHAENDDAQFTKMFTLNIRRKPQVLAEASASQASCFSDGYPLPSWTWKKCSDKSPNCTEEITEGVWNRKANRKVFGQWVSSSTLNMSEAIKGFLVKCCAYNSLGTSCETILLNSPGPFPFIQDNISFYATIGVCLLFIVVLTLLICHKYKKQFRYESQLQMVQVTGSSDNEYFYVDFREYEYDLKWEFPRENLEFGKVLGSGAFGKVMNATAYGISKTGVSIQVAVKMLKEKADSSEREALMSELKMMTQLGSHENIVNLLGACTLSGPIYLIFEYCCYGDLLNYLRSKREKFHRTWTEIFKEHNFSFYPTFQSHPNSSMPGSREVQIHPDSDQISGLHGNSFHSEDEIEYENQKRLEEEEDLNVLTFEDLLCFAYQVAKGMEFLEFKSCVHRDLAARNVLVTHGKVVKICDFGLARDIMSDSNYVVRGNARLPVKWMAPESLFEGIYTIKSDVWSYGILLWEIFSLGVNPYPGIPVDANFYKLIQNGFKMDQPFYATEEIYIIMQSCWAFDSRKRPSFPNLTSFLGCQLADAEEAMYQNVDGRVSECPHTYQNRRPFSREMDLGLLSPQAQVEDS

kinases [8] = biological target: kinases (Homo sapiens, UniProt Q9BZL6); conditions: PRKD2 (PKD2) Z-Lyte SP; Test Conc(μM):ATP Conc(μM) 1:25
kinases [9] = biological target: kinases
kinases [10] = biological target: kinases (Homo sapiens, UniProt Q92630); conditions: DYRK2 FRET-Lantha SP; Test Conc(μM) 1
Chain of kinases (Homo sapiens, UniProt Q92630) (Q92630 whole entry): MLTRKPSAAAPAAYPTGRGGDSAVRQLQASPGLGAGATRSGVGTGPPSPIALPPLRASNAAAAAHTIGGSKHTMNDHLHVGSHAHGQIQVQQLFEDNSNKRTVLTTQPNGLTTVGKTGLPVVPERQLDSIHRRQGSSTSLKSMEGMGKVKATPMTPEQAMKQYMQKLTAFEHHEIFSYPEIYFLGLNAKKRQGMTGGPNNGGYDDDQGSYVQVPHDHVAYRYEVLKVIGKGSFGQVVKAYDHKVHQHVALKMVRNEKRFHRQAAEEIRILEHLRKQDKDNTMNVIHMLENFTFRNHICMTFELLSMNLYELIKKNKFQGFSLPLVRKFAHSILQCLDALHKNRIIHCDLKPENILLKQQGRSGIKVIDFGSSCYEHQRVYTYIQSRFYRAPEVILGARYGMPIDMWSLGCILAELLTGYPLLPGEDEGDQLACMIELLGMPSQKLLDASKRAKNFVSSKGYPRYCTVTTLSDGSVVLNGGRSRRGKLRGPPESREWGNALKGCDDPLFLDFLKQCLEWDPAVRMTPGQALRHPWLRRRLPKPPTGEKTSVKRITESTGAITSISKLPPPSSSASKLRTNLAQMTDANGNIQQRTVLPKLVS

kinases [11] = biological target: kinases (Homo sapiens, UniProt Q8N568); conditions: DCAMKL2 (DCK2) FRET-Z-Lyte SP; Test Conc(μM):ATP Conc(μM) 1:150
kinases [12] = biological target: kinases (Homo sapiens, UniProt P53778); conditions: MAPK12 (p38 gamma) Z-Lyte SP; Test Conc(μM):ATP Conc(μM) 1:10
kinases [13] = biological target: kinases (Homo sapiens, UniProt P35968); conditions: KDR (VEGFR2) FRET-Z-Lyte SP; Test Conc(μM):ATP Conc(μM) 1:75
kinases [14] = biological target: kinases (Homo sapiens, UniProt Q99755); conditions: PIP5K1A FRET-Adapta SP; Test Conc(μM):ATP Conc(μM) 1:10
kinases [15] = biological target: kinases (Homo sapiens, UniProt P22694); conditions: PRKACB FRET-Lantha SP; Test Conc(μM) 1
kinases [16] = biological target: kinases (Homo sapiens, UniProt Q8N4C8); conditions: MINK1 FRET-Z-Lyte SP; Test Conc(μM):ATP Conc(μM) 1:25
kinases [17] = biological target: kinases (Homo sapiens, UniProt Q6PHR2); conditions: ULK3 FRET-Lantha SP; Test Conc(μM) 1
Chain of kinases (Homo sapiens, UniProt Q6PHR2) (Q6PHR2 whole entry): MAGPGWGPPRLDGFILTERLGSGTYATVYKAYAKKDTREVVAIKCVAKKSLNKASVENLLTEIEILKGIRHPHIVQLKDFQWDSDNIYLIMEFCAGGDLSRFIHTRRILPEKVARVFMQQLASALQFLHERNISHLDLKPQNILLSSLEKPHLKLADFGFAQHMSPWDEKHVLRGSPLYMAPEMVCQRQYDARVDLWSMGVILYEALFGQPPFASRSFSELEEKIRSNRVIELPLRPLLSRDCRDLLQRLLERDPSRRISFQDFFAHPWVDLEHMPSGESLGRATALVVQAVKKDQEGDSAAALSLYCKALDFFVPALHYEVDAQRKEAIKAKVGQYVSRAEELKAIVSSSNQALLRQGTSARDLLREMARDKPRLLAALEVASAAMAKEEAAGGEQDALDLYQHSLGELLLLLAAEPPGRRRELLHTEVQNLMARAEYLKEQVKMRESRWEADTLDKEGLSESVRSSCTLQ

kinases [18] = biological target: kinases (Homo sapiens, UniProt Q9UKI8); conditions: TLK1 FRET-Lantha SP; Test Conc(μM) 1
kinases [19] = biological target: kinases (Homo sapiens, UniProt Q9UK32); conditions: RPS6KA6 (RSK4) FRET-Z-Lyte SP; Test Conc(μM):ATP Conc(μM) 1:25
kinases [20] = biological target: kinases (Homo sapiens, UniProt Q96SB4); conditions: SRPK1 FRET-Z-Lyte SP; Test Conc(μM):ATP Conc(μM) 1:25
Chain of kinases (Homo sapiens, UniProt Q96SB4) (Q96SB4 whole entry): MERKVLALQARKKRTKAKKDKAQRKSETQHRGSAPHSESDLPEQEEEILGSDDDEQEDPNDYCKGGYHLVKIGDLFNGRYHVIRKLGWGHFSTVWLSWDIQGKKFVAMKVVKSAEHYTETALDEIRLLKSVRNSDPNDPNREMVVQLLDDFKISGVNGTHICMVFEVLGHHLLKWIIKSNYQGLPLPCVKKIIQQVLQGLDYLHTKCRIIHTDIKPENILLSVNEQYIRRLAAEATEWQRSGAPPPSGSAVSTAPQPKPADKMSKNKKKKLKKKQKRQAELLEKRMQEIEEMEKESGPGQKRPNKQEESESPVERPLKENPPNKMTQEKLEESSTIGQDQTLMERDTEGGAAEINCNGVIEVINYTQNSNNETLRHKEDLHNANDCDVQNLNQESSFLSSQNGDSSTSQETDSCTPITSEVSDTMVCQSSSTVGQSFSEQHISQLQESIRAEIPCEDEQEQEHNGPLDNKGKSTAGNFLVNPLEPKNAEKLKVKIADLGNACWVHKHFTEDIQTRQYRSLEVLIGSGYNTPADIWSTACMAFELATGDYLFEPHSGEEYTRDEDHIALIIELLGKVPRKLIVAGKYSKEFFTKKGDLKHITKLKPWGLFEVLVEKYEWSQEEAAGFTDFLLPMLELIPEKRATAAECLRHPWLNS

kinases [21] = biological target: kinases (Homo sapiens, UniProt Q13188); conditions: STK3 (MST2) FRET-Z-Lyte SP; Test Conc(μM):ATP Conc(μM) 1:50
kinases [22] = biological target: kinases (Homo sapiens, UniProt P04629); conditions: NTRK1 (TRKA) FRET-Z-Lyte SP; Test Conc(μM):ATP Conc(μM) 1:400
kinases [23] = biological target: kinases (Homo sapiens, UniProt P43250); conditions: GRK6 FRET-Z-Lyte SP; Test Conc(μM):ATP Conc(μM) 1:10
kinases [24] = biological target: kinases (Homo sapiens, UniProt P08581); conditions: MET (cMet) FRET-Z-Lyte SP; Test Conc(μM):ATP Conc(μM) 1:50
kinases [25] = biological target: kinases (Homo sapiens, UniProt O75582); conditions: RPS6KA5 (MSK1) FRET-Z-Lyte SP; ATP Conc(μM):Test Conc(μM) 1:50
Chain of kinases (Homo sapiens, UniProt O75582) (O75582 whole entry): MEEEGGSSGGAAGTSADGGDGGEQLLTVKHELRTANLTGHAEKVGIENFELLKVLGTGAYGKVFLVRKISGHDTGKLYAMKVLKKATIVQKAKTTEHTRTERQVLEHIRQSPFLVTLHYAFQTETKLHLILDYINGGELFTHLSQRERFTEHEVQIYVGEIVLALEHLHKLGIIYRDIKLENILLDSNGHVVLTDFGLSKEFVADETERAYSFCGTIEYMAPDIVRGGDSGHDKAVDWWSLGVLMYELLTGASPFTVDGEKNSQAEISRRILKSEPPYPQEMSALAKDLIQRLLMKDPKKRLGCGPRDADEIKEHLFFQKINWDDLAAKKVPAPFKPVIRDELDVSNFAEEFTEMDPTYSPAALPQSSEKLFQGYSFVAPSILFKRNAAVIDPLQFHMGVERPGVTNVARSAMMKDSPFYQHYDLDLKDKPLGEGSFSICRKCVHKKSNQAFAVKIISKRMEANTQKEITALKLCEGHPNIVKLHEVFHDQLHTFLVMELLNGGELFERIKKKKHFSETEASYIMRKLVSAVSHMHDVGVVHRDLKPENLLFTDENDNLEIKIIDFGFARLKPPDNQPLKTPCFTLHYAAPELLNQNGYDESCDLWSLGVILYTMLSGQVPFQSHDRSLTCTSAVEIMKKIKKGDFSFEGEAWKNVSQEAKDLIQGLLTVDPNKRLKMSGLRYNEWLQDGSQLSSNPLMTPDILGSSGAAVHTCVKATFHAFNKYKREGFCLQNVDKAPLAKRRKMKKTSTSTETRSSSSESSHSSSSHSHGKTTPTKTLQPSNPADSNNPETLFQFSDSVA

kinases [26] = biological target: kinases (Homo sapiens, UniProt Q6VAB6); conditions: KSR2 FRET-Z-Lyte SP; Test Conc(μM):ATP Conc(μM) 1:10
kinases [27] = biological target: kinases (Homo sapiens, UniProt Q13627); conditions: DYRK1A FRET-Z-Lyte SP; Test Conc(μM):ATP Conc(μM) 1:100
kinases [28] = biological target: kinases (Homo sapiens, UniProt Q00526); conditions: CDK3/cyclin E1 FRET-Lantha SP; Test Conc(μM) 1
Chain of kinases (Homo sapiens, UniProt Q00526) (Q00526 whole entry): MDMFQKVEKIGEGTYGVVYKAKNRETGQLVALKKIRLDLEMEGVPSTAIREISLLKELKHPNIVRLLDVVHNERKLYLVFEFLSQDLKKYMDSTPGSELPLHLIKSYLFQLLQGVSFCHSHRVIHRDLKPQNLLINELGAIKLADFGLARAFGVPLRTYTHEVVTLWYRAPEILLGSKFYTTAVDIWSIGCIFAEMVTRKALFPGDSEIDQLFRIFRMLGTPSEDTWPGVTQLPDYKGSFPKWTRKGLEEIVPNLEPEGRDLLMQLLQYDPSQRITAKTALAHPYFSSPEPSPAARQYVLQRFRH

[29] = LYN B FRET-Z-Lyte SP, Test Conc(μM):ATP Conc(μM) 1:25
[30] = PRKCB2 (PKC Beta II) Z-Lyte SP, Test Conc(μM):ATP Conc(μM) 1:200

Row | Compound | Mean Inhib (%) (kinases [1]) | Mean Inhib (%) (kinases [2]) | Mean Inhib (%) (kinases [3]) | Mean Inhib (%) (kinases [4]) | Mean Inhib (%) (kinases [5]) | Mean Inhib (%) (kinases [6]) | Mean Inhib (%) (kinases [7]) | Mean Inhib (%) (kinases [8]) | Mean Inhib (%) (kinases [9]; [29]) | Mean Inhib (%) (kinases [9]; [30]) | Mean Inhib (%) (kinases [10]) | Mean Inhib (%) (kinases [11]) | Mean Inhib (%) (kinases [12]) | Mean Inhib (%) (kinases [13]) | Mean Inhib (%) (kinases [14]) | Mean Inhib (%) (kinases [15]) | Mean Inhib (%) (kinases [16]) | Mean Inhib (%) (kinases [17]) | Mean Inhib (%) (kinases [18]) | Mean Inhib (%) (kinases [19]) | further results
1 | Cc1ccc(NC(=O)c2ccnc(N3CCOCC3)c2)cc1Nc1ccnc(N2CC(C)OC(C)C2)n1 (centres unmarked) [compound 3] | 8.6 | 1.0 | 6.1 | 5.2 | 6.7 | 0.2 | −9.3 | 1.5 | 16.3 | −11.1 | −0.5 | 5.5 | 5.1 | 3.2 | −2.9 | 2.3 | 1.6 | −2.1 | −4.3 | −9.0 | kinase specificity (kinase inhibition profile) (kinases [9]): strong specificity in targeting p38α; also recorded: very specific for p38α/β; Mean Inhib (%) (kinases [20]): 7.6%; Mean Inhib (%) (kinases [21]): 6.9%; Mean Inhib (%) (kinases [22]): 30.7%; Mean Inhib (%) (kinases [23]): 0.8%; Mean Inhib (%) (kinases [24]): 0.4%; Mean Inhib (%) (kinases [25]): 1.6%; Mean Inhib (%) (kinases [26]): 3.9%; Mean Inhib (%) (kinases [27]): 6.2%; Mean Inhib (%) (kinases [28]): 6.0%
2 | Cc1cc(Oc2ccnc(Nc3ccc(S(N)(=O)=O)cc3)c2)c(-c2ccccn2)nc1C [compound 65] | 5.9 | 23.8 | −6.9 | −1.3 | 65.2 | 1.4 | 8.9 | 21.2 | 42.0 | −1.0 | 9.6 | 4.9 | 4.1 | 3.8 | 2.4 | 10.9 | 19.9 | −2.4 | −4.5 | −0.7 | Mean Inhib (%) (kinases [20]): 2.9%; Mean Inhib (%) (kinases [21]): 1.1%; Mean Inhib (%) (kinases [22]): 20.1%; Mean Inhib (%) (kinases [23]): 2.1%; Mean Inhib (%) (kinases [24]): 2.5%; Mean Inhib (%) (kinases [25]): 10.0%; Mean Inhib (%) (kinases [26]): 1.6%; Mean Inhib (%) (kinases [27]): −1.9%; Mean Inhib (%) (kinases [28]): 9.6%
